Test results published in a melting point compilation (Tetko et al.; mined from patent text by program, amines drawn as free bases though some values may be those of a salt).

SMILES	melting point [°C]
Cc1nc(C)c(-c2[nH]nc3c2C(=O)c2c(NC(=O)NN4CCOCC4)cccc2-3)s1	> 300
CS(=O)(=O)c1ccc(-c2nn(CC3CC3)c(=O)cc2-c2ccc(Cl)cc2)cc1	140
CSC(=S)Nc1ccc(C)cc1C(=O)O	199
CCCc1cc2ccc(CC(=O)O)cc2[nH]1	85 to 87
CNC(=O)c1cc(-c2ccc(OC)c(OC)c2)nn(CC(C)C)c1=O	111 to 113
CC(=O)OCC(O)(CN(C)S(=O)(=O)c1cc(C)ccc1C)c1ccccc1 (configuration not stated)	84 to 85
CCCS(=O)c1cc(OCCCS(=O)Cc2ccccc2)ccc1C (configuration not stated)	92 to 94
FC(F)(F)c1ccccc1P(=S)(S)c1ccccc1C(F)(F)F	93 to 94
COC(=O)c1ccc2c(c1)c(=O)cc(-c1ccccc1)n2C	174 to 176
COC(=O)c1cccc(C)c1S(=O)(=O)Cl	114 to 116
CC(=O)N1CCc2c(sc3nc(CN4C(=O)CCC4=O)c(Cl)c(-c4ccc(O)cc4)c23)C1	300
CCCCOC(=O)COc1ccc(C(=O)Nc2ccc(C)cc2Sc2ccccc2-c2nnn[nH]2)cc1	161 to 162
CCOC(=O)NC(=O)n1c(-c2cc(OC)c(O)c(OC)c2)nc(-c2ccc(N(CC)CC)cc2)c1-c1ccc(N(CC)CC)cc1	60
Clc1ccc(-c2cc(Cl)c3ccccc3n2)cc1Cl	138 to 140
N#Cc1c[nH]cc1-c1ccc(Cl)cc1	147 to 148
C#CCC(C)C(=O)N1c2ccccc2C(=O)Nc2cccnc21 (configuration not stated)	202 to 204
O=C(O)CCCOc1ccc2cc(-c3ccc4ccc(Cl)cc4n3)oc2c1	200 to 201
CC(C)(C)c1cc(C=C2SC(=S)N(N)C2=O)ccc1O	> 225
C#CCN(Cc1ccc2nc(C)[nH]c(=O)c2c1)c1ccc(C(=O)NCC(OC(C)=O)c2ccc([N+](=O)[O-])cc2)cc1 (configuration not stated)	198 to 203
Cc1cc(C(=O)N[C@H]2CC[C@H](CCN3CCN(c4nccc5c4OCC5)CC3)CC2)on1	199
CCOC(=O)c1c(C#N)nn(-c2c(Cl)cc(C(F)(F)F)cc2Cl)c1N	202
CCSc1nnc(-c2ccccc2)n1Cc1ccc(N)cc1	126 to 127
CCOC(=O)C1(C(=O)Nc2ccc(F)cc2F)CC1	79 to 80.5
Clc1ccc2nc(-c3ccccc3)cc(CCC3CCCNC3)c2c1 (configuration not stated)	> 260
CCCCCCCC(=O)OC(C)c1ccc(-c2ccc(OCc3ccccc3)cc2)cc1 (single isomer, unassigned; (+))	91 to 92
COc1ccc(C(=O)COc2ccc(C(=O)O)c(O)c2)cc1C12CC3CC(CC(C3)C1)C2	225 to 226

SMILES	melting point [°C]
Cc1cc(NCCO)n2ncc([N+](=O)[O-])c2n1	231
C#Cc1ccc2c(c1)[C@@H](N)[C@H](O)CO2 (relative stereo)	132 to 134
Cc1ccc(S(=O)(=O)OCC2CCc3ccc4[nH]c(=O)[nH]c4c3O2)cc1 (configuration not stated)	205
CCc1ccc(C(=O)c2ccc(F)cc2)c(O)c1	44 to 48
Cc1ccsc1-c1ccc(C(C)(N)C(=O)O)cc1 (configuration not stated)	> 250
CN(C)CC#C[C@H]1CC[C@H](CN(C)c2ncc(Br)cn2)CC1	71 to 72
COc1cc(Nc2c(C#N)cnc3cc(I)sc23)c(Cl)cc1Cl	233 to 234
NS(=O)(=O)c1ccc(N2CN(c3ccccc3)CC2=O)c(Br)c1	193 to 200
O=C(O)CCC(=O)c1ccc(-c2ccc(Br)cc2)cc1	198 to 200
N#Cc1cc(=O)n(CCc2ccccc2)s1	228
Cc1c(Cl)cc(C2=NNC(=O)CC2O)cc1Cl (configuration not stated)	253 to 256
CCCCOC(=O)c1cccc2nc(CCCC)n(Cc3ccc(-c4ccccc4-c4nnn[nH]4)cc3)c12	192 to 193
O=C1CC(c2ccc(O)cc2)=Nc2ccc(N3CCOCC3)cc21	340 to 342
CC1(C)N=C(NC#N)N=C(NC(=O)c2nc(Cl)c(N)nc2N)N1	342
O=C1Nc2ccc(F)c(Cl)c2C(=O)N2CCC[C@@H]12	217 to 219
CCOC(=O)N1CCN(c2nnc(N)[nH]2)CC1	196 to 198
CN1CCN(C2=Nc3cc(Br)ccc3N3CCc4cccc2c43)CC1	153 to 155
CC(C)Oc1c(F)c(F)cc2c(=O)c(C(=O)O)cn(-c3cc(N)c(F)cc3F)c12	217 to 222
O=C(NCc1cccnc1)C1CCCCC1	90
COc1ccc2c(c1)C(=O)OC2=O	89 to 94
CSC1=C(Cl)CC2C3CCC4=CC(=O)C=CC4(C)C3(F)C(O)CC12C (configuration not stated)	262 to 268
CCOC(=O)c1cn(CCO)c2nc(N3CCN(C)CC3)ncc2c1=O	197 to 199
CSc1ccc(C=O)c(Cl)c1	76 to 77
O=C(O)c1ccc(OCCCc2ccc(O)c(O)c2)cc1	180 to 185
O=c1[nH]cc(C=Cc2cccnc2)c2ccccc12	222 to 224
CC(C)Cn1c(=O)n(C)c(=O)c2c(Sc3ccc(N)cc3)c(Cc3cccc4ccccc34)sc21	177 to 178
